System: nitrification of ammonium to nitrate in Greenville loamy soil
Experiment: Soil incubation test of nitrogen transformations (ammonium-N and nitrate-N)
Protocol: Three reaction products (Ex. 1-3) mixed with a urea solution to produce a liquid fertilizer solution were prepared and incubation tests were conducted. A comparative example of a urea only solution, i.e., a urea solution without a reaction product (C1), and a comparative example of a urea solution mixed with dicyandiamide (DCD) (C2) were also prepared and evaluated. For comparative example C2, the urea solution mixed with DCD was not reacted. In other words, the DCD was mixed with the urea solution to provide the fertilizer. A Control was also prepared that consisted of soil, i.e., no nitrogen source nor reaction product was added.
Incubation tests were performed using each Example 1-3 to evaluate the nitrogen transformations for each sample. The effect of each reaction product (Ex. 1-3) on the nitrogen concentration in the soil as both ammonium-nitrogen and nitrate-nitrogen were evaluated at three different concentrations of the reaction products. More particularly, the concentration of DCD for a first set of samples was 0.75 wt. % (Table 1), a second set of samples was 1.5 wt. % (Table 2), and a third set of samples was 3 wt. % (Table 3), where the weight percents of the DCD concentration are based on the total weight of nitrogen in the urea solution.
The soil used in the incubation tests was Greenville loamy soil (clay-loam, siliceous, thermic Plinthic Kandiudults). […] The phosphorous and sulfur concentrations were determined according to the Bray-1 test. The zinc concentration was determined according to the DTPA (diethylenetriaminepentaacetic acid) soil test.
As used herein, the term “field capacity,” refers to the drained upper limit or moisture content below which there is no free drainage flow. During the one week incubation period the moisture was reduced to about 80%. For each test 50 g of soil was placed into a cup and each cup was covered with a lid having four holes to allow for aeration and to minimize water loss.
Stock solutions containing each example were prepared by adding 2.15 g of urea and the corresponding amount of DCD (C2) or the reaction product (Ex. 1-3) to a 500 mL beaker to provide samples having 0.75 wt. % (Table 1), 1.5 wt. % (Table 2), and 3 wt. % (Table 3) DCD based on the total nitrogen concentration in the urea solution. After adding the urea (C1), urea plus DCD (C2), and urea plus the reaction products (Ex. 1-3), to the beakers, the contents of each beaker were diluted to 500 mL with distilled water to provide a stock solution. For the examples shown in Tables 1-3 below, 5 mL of the corresponding stock solution were introduced via a pipette onto each 50 g soil sample and the cover was placed thereon. The amount of nitrogen contained in each example (Ex. 1-3, C1, and C2) was 10 mg and the nitrogen was in the form of urea. The soil had at least an 80% field moisture capacity for each sample and if needed additional distilled water was used in order to achieve the 80% field moisture capacity.
Soil extractions were made at 1 week intervals to determine the amount of ammonium-nitrogen and nitrate-nitrogen in each example. A total of 10 extractions were performed, namely at time=0 and after the 1st week, 2nd week, 3rd week, 4th week, 5th week, 6th week, 7th week, 8th week, and the […]. Extracting the nitrogen from each sample was done by adding 100 mL of a 2M potassium chloride (KCl) solution to each soil sample to be tested. The amount of nitrogen in the form of ammonium (NH4^+) and nitrate (NO3^−) were then determined.
The amount of ammonium was determined using the well-known Berthelot reaction in which ammonia is chlorinated to monochloroamine, which then reacts with salicylate to form 5-aminosalicylate. After oxidation and oxidative coupling, a green color complex was formed which was measured at 660 nm using a spectrophotometer.
The determination of nitrate was determined based on the reduction of nitrate (NO3) to […] (NO2) by hydrazinium sulfate or cadmium metal. […]

[1] = 0.75 wt. % DCD based on nitrogen in urea solution, Wk. 0
[2] = 1.5 wt. % DCD Based on the Weight of Nitrogen in the Fertilizer, Wk. 0
[3] = 3 wt. % DCD Based on the Weight of Nitrogen in the Fertilizer, Wk. 0

NC(N)=O [C1, urea]
Ammonium (NH4^+) [1]: 0.39 mg N
Nitrate (NO3^−) [1]: 1.27 mg N
Ammonium (NH4^+) (0.75 wt. % DCD, Wk. 1): 6.81 mg N
Nitrate (NO3^−) (0.75 wt. % DCD, Wk. 1): 3.61 mg N
Ammonium (NH4^+) (0.75 wt. % DCD, Wk. 2): 4.21 mg N
Nitrate (NO3^−) (0.75 wt. % DCD, Wk. 2): 6.37 mg N
Ammonium (NH4^+) (0.75 wt. % DCD, Wk. 3): 2.14 mg N
Nitrate (NO3^−) (0.75 wt. % DCD, Wk. 3): 8.38 mg N
Ammonium (NH4^+) (0.75 wt. % DCD, Wk. 4): 0.18 mg N
Nitrate (NO3^−) (0.75 wt. % DCD, Wk. 4): 10.45 mg N
Ammonium (NH4^+) (0.75 wt. % DCD, Wk. 5): 0.08 mg N
Nitrate (NO3^−) (0.75 wt. % DCD, Wk. 5): 10.69 mg N
Ammonium (NH4^+) (0.75 wt. % DCD, Wk. 6): 0.08 mg N
Nitrate (NO3^−) (0.75 wt. % DCD, Wk. 6): 10.66 mg N
Ammonium (NH4^+) (0.75 wt. % DCD, Wk. 7): 0.09 mg N
Nitrate (NO3^−) (0.75 wt. % DCD, Wk. 7): 10.85 mg N
Ammonium (NH4^+) (0.75 wt. % DCD, Wk. 8): 0.10 mg N
Nitrate (NO3^−) (0.75 wt. % DCD, Wk. 8): 10.97 mg N
Ammonium (NH4^+) (0.75 wt. % DCD, Wk. 10): 0.04 mg N
Nitrate (NO3^−) (0.75 wt. % DCD, Wk. 10): 10.98 mg N
Ammonium (NH4^+) [2]: 0.39 mg N
Nitrate (NO3^−) [2]: 1.27 mg N
Ammonium (NH4^+) (1.5 wt. % DCD, Wk. 1): 6.81 mg N
Nitrate (NO3^−) (1.5 wt. % DCD, Wk. 1): 3.61 mg N
Ammonium (NH4^+) (1.5 wt. % DCD, Wk. 2): 4.21 mg N
Nitrate (NO3^−) (1.5 wt. % DCD, Wk. 2): 6.37 mg N
Ammonium (NH4^+) (1.5 wt. % DCD, Wk. 3): 2.14 mg N
Nitrate (NO3^−) (1.5 wt. % DCD, Wk. 3): 8.38 mg N
Ammonium (NH4^+) (1.5 wt. % DCD, Wk. 4): 0.18 mg N
Nitrate (NO3^−) (1.5 wt. % DCD, Wk. 4): 10.45 mg N
Ammonium (NH4^+) (1.5 wt. % DCD, Wk. 5): 0.08 mg N
Nitrate (NO3^−) (1.5 wt. % DCD, Wk. 5): 10.69 mg N
Ammonium (NH4^+) (1.5 wt. % DCD, Wk. 6): 0.08 mg N
Nitrate (NO3^−) (1.5 wt. % DCD, Wk. 6): 10.66 mg N
Ammonium (NH4^+) (1.5 wt. % DCD, Wk. 7): 0.09 mg N
Nitrate (NO3^−) (1.5 wt. % DCD, Wk. 7): 10.85 mg N
Ammonium (NH4^+) (1.5 wt. % DCD, Wk. 8): 0.10 mg N
Nitrate (NO3^−) (1.5 wt. % DCD, Wk. 8): 10.97 mg N
Ammonium (NH4^+) (1.5 wt. % DCD, Wk. 10): 0.04 mg N
Nitrate (NO3^−) (1.5 wt. % DCD, Wk. 10): 10.98 mg N
Ammonium (NH4^+) [3]: 0.39 mg N
Nitrate (NO3^−) [3]: 1.27 mg N
Ammonium (NH4^+) (3 wt. % DCD, Wk. 1): 6.81 mg N
Nitrate (NO3^−) (3 wt. % DCD, Wk. 1): 3.61 mg N
Ammonium (NH4^+) (3 wt. % DCD, Wk. 2): 4.21 mg N
Nitrate (NO3^−) (3 wt. % DCD, Wk. 2): 6.37 mg N
Ammonium (NH4^+) (3 wt. % DCD, Wk. 3): 2.14 mg N
Nitrate (NO3^−) (3 wt. % DCD, Wk. 3): 8.38 mg N
Ammonium (NH4^+) (3 wt. % DCD, Wk. 4): 0.18 mg N
Nitrate (NO3^−) (3 wt. % DCD, Wk. 4): 10.45 mg N
Ammonium (NH4^+) (3 wt. % DCD, Wk. 5): 0.08 mg N
Nitrate (NO3^−) (3 wt. % DCD, Wk. 5): 10.69 mg N
Ammonium (NH4^+) (3 wt. % DCD, Wk. 6): 0.08 mg N
Nitrate (NO3^−) (3 wt. % DCD, Wk. 6): 10.66 mg N
Ammonium (NH4^+) (3 wt. % DCD, Wk. 7): 0.09 mg N
Nitrate (NO3^−) (3 wt. % DCD, Wk. 7): 10.85 mg N
Ammonium (NH4^+) (3 wt. % DCD, Wk. 8): 0.10 mg N
Nitrate (NO3^−) (3 wt. % DCD, Wk. 8): 10.97 mg N
Ammonium (NH4^+) (3 wt. % DCD, Wk. 10): 0.04 mg N
Nitrate (NO3^−) (3 wt. % DCD, Wk. 10): 10.98 mg N

Source: patent US12134587B2, “Reaction products and methods for making and using the same” (KOCH AGRONOMIC SERVICES, LLC, priority 2010, dated 2024)
